Measured values: patent US9918966B2, “Anti-cancer compositions and methods” (The Penn State Research Foundation, priority 2013, dated 2018)
Where two headings read alike, the source gives them in different places.

Assays:
[1] = Text: Number of mice surviving and changes in body weight after 7 days of drug treatment is scored (Table I).
Caco-2 (Colon) = test: IC50 for killing cancer cells; type: cell-based; conditions: Homo sapiens
Text: (§1) Therapeutic universality of selenocoxib-1-GSH for killing cancer cells is examined by treating pancreatic (MiaPaca-2), breast (MDA-MB-231), prostate (PC-3) or sarcoma (HT-1080) and colon (Caco2) cell. lines with the drug and establishing the IC50 for each cell line, Table III. Selenocoxib-1-GSH kills the various cancer cell lines at 2-3-fold lower concentrations than normal fibroblast cells.

HT-1080 (Fibro sarcoma) = test: IC50 for killing cancer cells; type: cell-based; conditions: Homo sapiens
Text: as §1

MDA-MB-231 (Breast) = test: IC50 for killing cancer cells; type: cell-based; conditions: Homo sapiens
Text: as §1

MiaPaca-2 (Pancreas) = test: IC50 for killing cancer cells; type: cell-based; conditions: Homo sapiens, MIA PaCa-2
Text: as §1

PC-3 (Prostate) = test: IC50 for killing cancer cells; type: cell-based; conditions: Homo sapiens
Text: as §1

[2] = system: various cancer cell lines; test: Killing of various cancer cell lines compared with normal fibroblast cells; type: cell-based, human; conditions: MiaPaca-2, MDA-MB-231, PC-3, HT-1080, Caco2 versus normal fibroblast cells
Text: as §1

[3] = system: normal human melanocytes or fibroblast cells
Method: Cell viability, proliferation, apoptosis and cell cycle analysis: Viability and IC50 (μmol/L) of normal human melanocytes, fibroblast and melanoma cells following treatment with inhibitors are measured using the MTS assay (Promega, Madison, Wis.) described in Sharma A, et al., Clin Cancer Res 2009; 15:1674-85; and Madhunapantula S V, et al., Mol Cancer Ther 2008; 7:1297-308. […] IC50 values for each inhibitor in μmol/L for respective cell lines are measured from three independent experiments using GraphPad Prism version 4.01 (GraphPad Software, La Jolla, Calif.).

1205 Lu melanoma cells [4] = test: Cell proliferation ELISA BrdU; type: cell-based, human; conditions: 72 h, increasing concentrations
Text: (§2) Data represent averages of at least 3 independent experiments; bars; S.E.M.
(§3) Percentage of proliferating and apoptotic cells are quantified by a colorimetric using cell proliferation ELISA BrdU kit (Roche Applied Sciences, Indianapolis, Ind.) and Apo-ONE Homogenous caspase-3/7 assay kit (Promega, Madison Wis.), as described in Sharma A, et al., Clin Cancer Res 2009; 15:1674-85; and Madhunapantula S V, et al., Mal Cancer Ther 2008; 7:1297-308.

UACC 903 melanoma cells [5] = test: Cell proliferation ELISA BrdU; type: cell-based, human; conditions: UACC 903, 72 h, increasing concentrations
Text: as §2, §3

1205 Lu tumors = type: in vivo, athymic-Foxn1nu nude mice
Method: (§4) Tumor kinetics are measured by subcutaneous injection of 1×10^6 1205 Lu or UACC 903 cells in 0.2 mL of DMEM supplemented with 10% FBS subcutaneously injected above both left and right rib cages of 3- to 4-wk-old female athymic-Foxn1^nu nude mice (Harlan Sprague Dawley, IN).

UACC 903 tumors = type: in vivo, athymic-Foxn1nu nude mice
Method: as §4

1205 Lu melanoma cells [6] = test: Western blot analysis; type: cell-based, human
Text: (§5) Cell lysates are harvested and processed as described in Sharma A et al., Cancer Res 2006, 66:8200-9. […] Protein lysates are collected for Western blotting. Blots are probed with total and phospho-Akt (Ser473), phospho-PRAS40 (Thr246), phospho-Erk1/2 (Thr202/Tyr204), total and Phospho-Mek1/2 (Ser217) and cleaved PARP from Cell Signaling Technology (Danvers, Mass.). Total PRAS40 from Invitrogen (Carlsbad, Calif.). Total Erk, cyclin D1, p27, Alpha-enolase and secondary antibodies conjugated with horseradish peroxidase from Santa Cruz Biotechnology (Santa Cruz Biotechnology, Santa Cruz, Calif.). COX-1 and COX-2 antibodies were obtained from Cayman Chemical Company, Ann Arbor, Mich. Immunoblots are developed using the enhanced chemiluminescence detection system (Amersham Pharmacia Biotech, Piscataway, N.J.).

UACC 903 melanoma cells [7] = test: Western blot analysis; type: cell-based, human
Text: as §5

1205 Lu melanoma cells [8] = test: Reactive oxygen species (ROS) assay; type: cell-based, human; conditions: 5, 10, 15 and 20 μmol/L, 24 hours, compared to celecoxib and selenocoxib-1
Method: (§6) Intracellular ROS are monitored according to a procedure described in detail in Smasundaram et al., Cancer Res., 62:3868-3875, 2002. […] After 24 hours treatment, total cells (floating and adherent) are collected in ice-cold phosphate-buffered saline and 5×10^3 cells/well placed in 100 microliters culture medium in a 96-well plate containing 10 micromoles/liter 2′,7′-dichlorfluorescein-diacetate (commercially available from Sigma, St. Louis, Mo.) and incubated at 37° C. for 30 minutes. The amount of ROS present compared to DMSO vehicle treated cells was represented in arbitrary units.
(§7) Selenocoxib-1-GSH inhibits the generation of ROS.

UACC 903 melanoma cells [9] = test: Reactive oxygen species (ROS) assay; type: cell-based, human; conditions: 5, 10, 15 and 20 μmol/L, 24 hours, compared to celecoxib and selenocoxib-1
Method: as §6, §7

Compound: NC(CCC(=O)NC(CS[Se]Cc1cc(-c2ccccc2)n(-c2ccc(S(N)(=O)=O)cc2)n1)C(=O)NCC(=O)O)C(=O)O (centres unmarked) [Selenocoxib-1-GSH, selenocoxib-1-glutathione]
- % of weight loss ([1]; 0.127 μmoles (10 PPM) intraperitoneally daily for seven days): No loss
- Mortality at Day 7 ([1]; 0.127 μmoles intraperitoneally daily for seven days, 3 mice/group (Selenocoxib-1-GSH: 10 PPM)): 0/3
- % of weight loss ([1]; 0.254 μmoles (20 PPM) intraperitoneally daily for seven days): 2.0%
- Mortality at Day 7 ([1]; 0.254 μmoles (20 PPM) intraperitoneally daily for seven days, 3 mice/group): 0/3
- mortality ([1]; 0.127 to 0.254, seven days): no mortality
- weight loss ([1]; 0.127 to 0.254 moles (equivalent to 5 to 10 ppm of selenium), seven days): ~2%
- IC50 (Caco-2 (Colon)): 16.1 ± 0.87 µM
- IC50 (HT-1080 (Fibro sarcoma)): 9.1 ± 1.89 µM
- IC50 (MDA-MB-231 (Breast)): 15.4 ± 2.51 µM
- IC50 (MiaPaca-2 (Pancreas)): 13.3 ± 1.01 µM
- IC50 (PC-3 (Prostate)): 16.4 ± 2.11 µM
- lower concentrations killing cancer cell lines than normal fibroblast cells [2]: 2-3 fold
- toxicity on normal cells relative to melanoma cells [3]: significantly lower toxicity on normal cells
- cell proliferation (BrdU incorporation) (1205 Lu melanoma cells [4]): reduces proliferation
- cell proliferation (BrdU incorporation) (UACC 903 melanoma cells [5]): reduces proliferation
- day from which a significant decrease in xenograft tumor development is observed (1205 Lu tumors; 1205 Lu tumors, compared to vehicle DMSO): 16 days
- decrease in tumor volume (1205 Lu tumors; 1205 Lu, at the end of treatment, compared to controls): ≤ 70%
- reduction of tumor development (1205 Lu tumors; 1205 Lu, 0.127 μmoles (10 ppm selenium) intraperitoneally on alternate days for 4 weeks, compared to DMSO control): 70.5%
- decrease in tumor volume (UACC 903 tumors; UACC 903, at the end of treatment, compared to controls): ≤ 70%
- reduction of tumor development (UACC 903 tumors; UACC 903, 0.127 μmoles (10 ppm selenium) intraperitoneally on alternate days for 4 weeks, compared to DMSO control): 52%
- day from which a significant decrease in xenograft tumor development is observed (UACC 903 tumors; UACC 903 tumors, compared to vehicle DMSO): 22 days
- cleaved PARP protein (1205 Lu melanoma cells [6]): elevates levels of cleaved PARP protein
- expression of cyclin-D1 (1205 Lu melanoma cells [6]): inhibits the expression of cyclin-D1
- levels of p27 (1205 Lu melanoma cells [6]): increases the levels of p27
- pErk1/2 levels (1205 Lu melanoma cells [6]; 15 and 20 μmol/L): increased pErk1/2 levels
- pPRAS40 (1205 Lu melanoma cells [6]; 72 h): reduces expression
- Akt phosphorylation (1205 Lu melanoma cells [6]; 72 h, increasing concentrations, compared to celecoxib): inhibited the Akt phosphorylation in a dose dependent manner
- cleaved PARP protein (UACC 903 melanoma cells [7]; UACC 903): elevates levels of cleaved PARP protein
- expression of cyclin-D1 (UACC 903 melanoma cells [7]; UACC 903): inhibits the expression of cyclin-D1
- levels of p27 (UACC 903 melanoma cells [7]; UACC 903): increases the levels of p27
- pErk1/2 levels (UACC 903 melanoma cells [7]; UACC 903, 15 and 20 μmol/L): increased pErk1/2 levels
- pPRAS40 (UACC 903 melanoma cells [7]; UACC 903, 72 h): reduces expression
- Akt phosphorylation (UACC 903 melanoma cells [7]; UACC 903, 72 h, increasing concentrations, compared to celecoxib): inhibited the Akt phosphorylation in a dose dependent manner
- ROS (1205 Lu melanoma cells [8]): more dramatically decreased ROS
- ROS (UACC 903 melanoma cells [9]): more dramatically decreased ROS
